Data: article PMC6234229, “The role of loops B and C in determining the potentiation of GABAA receptors by midazolam” (Pharmacology Research & Perspectives, 2018)
Several values for one entry are separate records, joined by “and”; a condition that tells them apart may be missing. Identical values can stand only once.

Columns and labels:
Assay in all cases: Midazolam potentiation of EC10 GABA currents, whole-cell patch clamp, HEK293T
Assay type in all cases: cell-based
α2β2γ2 GABAA receptor = target: T1, α2β2γ2 GABAA receptor (Homo sapiens, UniProt P18507+P47869+P47870)
T1 construct: expressed in transfected cells; host or cells: HEK293T
T1 sequence (P47869 29-451): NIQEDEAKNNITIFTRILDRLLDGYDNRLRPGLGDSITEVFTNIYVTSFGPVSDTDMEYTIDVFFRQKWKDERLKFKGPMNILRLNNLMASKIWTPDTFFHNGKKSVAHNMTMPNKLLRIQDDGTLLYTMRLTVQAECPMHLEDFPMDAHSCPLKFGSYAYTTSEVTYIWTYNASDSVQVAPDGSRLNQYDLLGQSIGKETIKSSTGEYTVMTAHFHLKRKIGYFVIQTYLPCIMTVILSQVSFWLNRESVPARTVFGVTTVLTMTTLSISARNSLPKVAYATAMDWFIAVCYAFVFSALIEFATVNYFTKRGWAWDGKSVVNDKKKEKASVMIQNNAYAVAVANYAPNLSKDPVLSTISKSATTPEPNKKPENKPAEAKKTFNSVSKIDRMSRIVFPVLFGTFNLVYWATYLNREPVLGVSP
T1 sequence (P47870 25-512 limits assumed): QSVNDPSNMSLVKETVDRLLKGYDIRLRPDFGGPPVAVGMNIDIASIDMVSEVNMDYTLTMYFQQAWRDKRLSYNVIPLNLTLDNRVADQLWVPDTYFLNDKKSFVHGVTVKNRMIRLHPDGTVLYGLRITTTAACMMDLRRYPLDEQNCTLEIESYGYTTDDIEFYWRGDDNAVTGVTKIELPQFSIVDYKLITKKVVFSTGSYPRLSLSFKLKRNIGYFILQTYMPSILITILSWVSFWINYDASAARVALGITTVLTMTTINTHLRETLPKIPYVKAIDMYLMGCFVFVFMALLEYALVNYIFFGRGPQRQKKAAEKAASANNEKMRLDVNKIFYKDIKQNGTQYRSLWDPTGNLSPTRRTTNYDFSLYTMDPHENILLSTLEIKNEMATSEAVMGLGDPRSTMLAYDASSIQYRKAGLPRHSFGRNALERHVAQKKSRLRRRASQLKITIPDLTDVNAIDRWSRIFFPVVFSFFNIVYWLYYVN
T1 sequence (P18507 40-467 isoform P18507-1 limits assumed): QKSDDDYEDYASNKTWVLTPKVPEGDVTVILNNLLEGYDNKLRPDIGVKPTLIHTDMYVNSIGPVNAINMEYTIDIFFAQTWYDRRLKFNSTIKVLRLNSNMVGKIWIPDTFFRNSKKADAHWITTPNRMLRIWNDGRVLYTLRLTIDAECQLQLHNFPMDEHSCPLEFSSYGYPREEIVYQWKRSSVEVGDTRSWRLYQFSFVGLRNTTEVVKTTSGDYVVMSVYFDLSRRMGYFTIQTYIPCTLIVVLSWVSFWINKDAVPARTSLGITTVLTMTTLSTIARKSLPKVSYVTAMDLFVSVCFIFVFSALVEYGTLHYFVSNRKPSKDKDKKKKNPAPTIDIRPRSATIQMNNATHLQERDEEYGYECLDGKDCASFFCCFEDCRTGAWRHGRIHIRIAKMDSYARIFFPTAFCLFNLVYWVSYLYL
Text: (§1) Human (Homo sapiens) GABAA subunits (α1‐6, β2, γ2s) were subcloned into pcDNA3.1+ vectors with a cytomegalovirus (CMV) promoter. The hβ2 and hα3 sequences were humanized rat (Rattus norvegicus) cDNA with amino acid substitutions made to match the human protein sequence. The α1‐3, α5, β2, and γ2s subunits were a generous gift from Neil L. Harrison (Columbia University Medical Center, NY). The α4 subunit was obtained from GenScript (Piscataway, NJ), and the α6 subunit was a generous gift from Robert L. McDonald (Vanderbilt University, TN). All point mutations (listed in Figure 1C) were introduced using the QuikChange Lightening site‐directed mutagenesis kit (Agilent Technologies, Santa Clara, CA) according to the manufacturer's instructions and were confirmed by sequencing (Eurofins MWG Operon, Louisville, KY).
(§2) Human embryonic kidney cells containing the SV40 T‐antigen (HEK293T) were acquired from American Type Culture Collection (ATCC®, Manassas, VA), catalogue number, CRL3216. HEK293T cells were maintained at 37°C and 5% CO2 in Eagle Minimum Essential Medium (MEM) supplemented with 5% fetal bovine serum (Atlanta Biologicals Inc., Flowery Branch, GA), 40 μM L‐glutamine, 100 U/mL penicillin and 0.1 mM streptomycin. Cells were passaged regularly when they reached 70% confluency using trypsin. Cells were not passaged more than 22 times. New cells were revived from frozen stocks at passage 2‐4. Cells used for in vitro electrophysiology experiments were grown on poly‐D‐lysine‐coated glass coverslips (No.2, VWR, Radnor, PA) and transfected with X‐tremeGENE (Roche Diagnostics, Indianapolis, IN) with the desired receptor subunit cDNAs at a 1:1:1 ratio to express αxβ2γ2s receptors (2 μg total cDNA) and with 0.5 μg green fluorescent protein (GFP) as an expression marker. The γ2s incorporation into receptors was tested with zinc inhibition assays regularly.24 Patch clamp experiments were performed on cells at 24‐72 hours post‐transfection. All experiments were performed at 22°C. Experiments consisted of at least five cells recorded per day from at least two transfections across 3‐4 days to control for cell health and transfection efficiency. At least three cells expressing wild‐type receptors were recorded on days that mutant receptors were tested to provide a time‐matched expression control. All reagents were purchased from Sigma‐Aldrich (St. Louis, MO) unless otherwise stated.
(§3) Extracellular solution contained 161 mM NaCl, 3 mM KCl, 1 mM MgCl2, 1.5 mM CaCl2, 10 mM HEPES, and 6 mM D‐glucose, adjusted to pH 7.4 with NaOH (320‐330 mOsm). […] The perfusion system was controlled by protocols written in pClamp 9 (Molecular Devices, LLC., Sunnyvale, CA). Whole‐cell currents were recorded at ‐60 mV, filtered at 100 Hz and sampled at 200 Hz with a MultiClamp 700B amplifier (Molecular Devices, LLC) and DigiData 1322A (Molecular Devices, LLC) digitizer. […] Cells were recorded with the midazolam protocol no more than two times to avoid desensitization and incomplete washout or irreversible modulation.
(§4) Recordings were analyzed using MATLAB (Math Works, Inc., Natick, MA). […] The maximum peak current, EC50 and Hill coefficient were estimated for assays from each cell. When Hill parameters are estimated from whole‐cell recordings, the changes in the parameters across receptor conditions can be ascribed to the following changes in receptor physiology. Changes in maximum current can be due to changes in the single‐channel conductance or the rate of desensitization. Changes in cell surface receptor expression can cause minor changes in maximum current, but are unlikely to occur in the time course of our experimental protocol. […] More often minor changes in the Hill coefficient are attributed to the altered homogeneity in the receptor population expressed by the HEK293T cell. For example, a shallower Hill coefficient could be caused by a shift in the population of receptors from mostly αβγ receptors to a combination of both αβ and αβγ receptors.

[1] = target: T2, α6(N204I)β2γ2 GABAA receptor (Homo sapiens, UniProt P18507+P47870+Q16445, N223I)
T2 construct: expressed in transfected cells; host or cells: HEK293T
T2 sequence (Q16445 20-453 N223I): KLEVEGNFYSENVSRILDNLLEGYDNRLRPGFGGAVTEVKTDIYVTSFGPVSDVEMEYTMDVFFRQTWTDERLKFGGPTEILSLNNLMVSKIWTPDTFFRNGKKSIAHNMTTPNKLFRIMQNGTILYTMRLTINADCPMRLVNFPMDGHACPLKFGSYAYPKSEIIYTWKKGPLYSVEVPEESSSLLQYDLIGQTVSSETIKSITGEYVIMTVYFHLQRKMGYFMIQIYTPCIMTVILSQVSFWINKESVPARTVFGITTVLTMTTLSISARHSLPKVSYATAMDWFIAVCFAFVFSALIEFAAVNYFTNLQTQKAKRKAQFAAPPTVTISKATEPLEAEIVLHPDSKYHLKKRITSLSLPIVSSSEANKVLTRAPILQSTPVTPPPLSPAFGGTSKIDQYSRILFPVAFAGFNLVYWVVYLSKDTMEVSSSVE
T2 sequence (P47870 26-474 isoform P47870-1 limits assumed, stated change not applied): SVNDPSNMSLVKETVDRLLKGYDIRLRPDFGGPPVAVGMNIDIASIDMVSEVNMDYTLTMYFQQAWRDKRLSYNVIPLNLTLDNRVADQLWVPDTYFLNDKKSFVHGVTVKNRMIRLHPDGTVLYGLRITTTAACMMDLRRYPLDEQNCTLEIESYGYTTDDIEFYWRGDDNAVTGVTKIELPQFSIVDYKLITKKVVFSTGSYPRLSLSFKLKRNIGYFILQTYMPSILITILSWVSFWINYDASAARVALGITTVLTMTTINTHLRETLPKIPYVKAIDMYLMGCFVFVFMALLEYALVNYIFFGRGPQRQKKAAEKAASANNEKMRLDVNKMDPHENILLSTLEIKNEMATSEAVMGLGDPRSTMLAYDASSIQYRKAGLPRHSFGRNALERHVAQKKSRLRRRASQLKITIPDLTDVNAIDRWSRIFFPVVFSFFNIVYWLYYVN
T2 sequence (P18507 40-467 isoform P18507-1 limits assumed, stated change not applied): as the sequence (P18507 40-467 isoform P18507-1 limits assumed) above
Text: as §1, §2, §3, §4

[2] = target: T3, α2(T162P)β2γ2 GABAA receptor (Homo sapiens, UniProt P18507+P47869+P47870, T190P)
T3 construct: expressed in transfected cells; host or cells: HEK293T
T3 sequence (P47869 29-451 T190P): as the sequence (P47869 29-451) above, with T162P counted along it
T3 sequence (P47870 25-512 limits assumed): as the sequence (P47870 25-512 limits assumed) above
T3 sequence (P18507 40-467 isoform P18507-1 limits assumed, stated change not applied): as the sequence (P18507 40-467 isoform P18507-1 limits assumed) above
Text: as §1, §2, §3, §4

α4β2γ2 GABAA receptor = target: T4, α4β2γ2 GABAA receptor (Homo sapiens, UniProt P18507+P47870+P48169); conditions: for Midazolam potentiation (%): α4β2γ2
T4 construct: expressed in transfected cells; host or cells: HEK293T
T4 sequence (P48169 36-554): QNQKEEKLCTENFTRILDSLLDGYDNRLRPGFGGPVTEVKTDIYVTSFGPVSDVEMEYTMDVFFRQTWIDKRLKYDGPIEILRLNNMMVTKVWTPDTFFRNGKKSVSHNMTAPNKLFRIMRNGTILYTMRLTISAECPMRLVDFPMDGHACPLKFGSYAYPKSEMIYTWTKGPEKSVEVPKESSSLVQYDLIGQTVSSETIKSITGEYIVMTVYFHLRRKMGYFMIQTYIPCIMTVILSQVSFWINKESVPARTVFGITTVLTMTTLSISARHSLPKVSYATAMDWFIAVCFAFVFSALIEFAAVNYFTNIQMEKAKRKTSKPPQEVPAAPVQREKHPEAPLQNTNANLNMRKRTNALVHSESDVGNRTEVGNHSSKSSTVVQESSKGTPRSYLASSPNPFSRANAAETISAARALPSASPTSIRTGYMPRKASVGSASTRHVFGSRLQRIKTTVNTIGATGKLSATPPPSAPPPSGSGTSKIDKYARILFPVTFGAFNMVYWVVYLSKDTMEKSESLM
T4 sequence (P47870 26-474 isoform P47870-1 limits assumed): as the sequence (P47870 26-474 isoform P47870-1 limits assumed, stated change not applied) above
T4 sequence (P18507 40-467 isoform P18507-1 limits assumed): as the sequence (P18507 40-467 isoform P18507-1 limits assumed) above
Text: as §1, §2, §3, §4

[3] = target: T5, α1(S206I)β2γ2 GABAA receptor (Homo sapiens, UniProt P14867+P18507+P47870, S233I)
T5 construct: expressed in transfected cells; host or cells: HEK293T
T5 sequence (P14867 28-456 S233I): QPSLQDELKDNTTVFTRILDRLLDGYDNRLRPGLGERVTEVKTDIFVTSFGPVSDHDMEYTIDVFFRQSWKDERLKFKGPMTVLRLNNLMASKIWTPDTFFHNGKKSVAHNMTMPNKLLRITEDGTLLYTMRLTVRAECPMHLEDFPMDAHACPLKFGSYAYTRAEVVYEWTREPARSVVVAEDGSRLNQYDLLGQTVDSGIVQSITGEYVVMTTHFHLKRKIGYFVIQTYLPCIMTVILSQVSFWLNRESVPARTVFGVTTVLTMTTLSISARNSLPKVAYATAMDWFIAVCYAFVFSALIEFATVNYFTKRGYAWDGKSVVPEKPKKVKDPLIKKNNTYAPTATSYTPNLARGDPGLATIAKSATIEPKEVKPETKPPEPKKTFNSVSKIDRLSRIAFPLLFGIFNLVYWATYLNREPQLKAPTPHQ
T5 sequence (P47870 25-512 limits assumed, stated change not applied): as the sequence (P47870 25-512 limits assumed) above
T5 sequence (P18507 40-467 isoform P18507-1 limits assumed, stated change not applied): as the sequence (P18507 40-467 isoform P18507-1 limits assumed) above
Text: as §1, §2, §3, §4

[4] = target: T6, α2(H101R)β2γ2 GABAA receptor (Homo sapiens, UniProt P18507+P47869+P47870, H129R); conditions: for Midazolam potentiation (%): α2(H101R)
T6 construct: expressed in transfected cells; host or cells: HEK293T
T6 sequence (P47869 29-451 H129R): as the sequence (P47869 29-451) above, with H101R counted along it
T6 sequence (P47870 25-512 limits assumed): as the sequence (P47870 25-512 limits assumed) above
T6 sequence (P18507 40-467 isoform P18507-1 limits assumed, stated change not applied): as the sequence (P18507 40-467 isoform P18507-1 limits assumed) above
Text: as §1, §2, §3, §4

[5] = target: T7, α1(T163P)β2γ2 GABAA receptor (Homo sapiens, UniProt P14867+P18507+P47870, T190P)
T7 construct: expressed in transfected cells; host or cells: HEK293T
T7 sequence (P14867 28-456 T190P): as the sequence (P14867 28-456 S233I) above, with T163P, I206S counted along it
T7 sequence (P47870 25-512 limits assumed): as the sequence (P47870 25-512 limits assumed) above
T7 sequence (P18507 40-467 isoform P18507-1 limits assumed, stated change not applied): as the sequence (P18507 40-467 isoform P18507-1 limits assumed) above
Text: as §1, §2, §3, §4

## Cc1ncc2n1-c1ccc(Cl)cc1C(c1ccccc1F)=NC2 [midazolam]
α2β2γ2 GABAA receptor
  EC50: 50.9 ± 5.05 nM
α2β2γ2 GABAA receptor; 10 nM MDZ + EC10 GABA, α2β2γ2
  Midazolam potentiation (%): 19.47 ± 4.19%
α2β2γ2 GABAA receptor; 50 nM MDZ + EC10 GABA, α2β2γ2
  Midazolam potentiation (%): 69.08 ± 17.73%
α2β2γ2 GABAA receptor; 100 nM MDZ + EC10 GABA, α2β2γ2
  Midazolam potentiation (%): 128.98 ± 36.14%
α2β2γ2 GABAA receptor; 500 nM MDZ + EC10 GABA, α2β2γ2
  Midazolam potentiation (%): 167.38 ± 49.89%
α2β2γ2 GABAA receptor; 1000 nM MDZ + EC10 GABA, α2β2γ2
  Midazolam potentiation (%): 165.35 ± 48.98%
α2β2γ2 GABAA receptor; α2β2γ2, Hill fit, midazolam 10-1000 nM + EC10 GABA
  Max potentiation (%): 169.6 ± 49.9%
α2β2γ2 GABAA receptor; α2β2γ2, midazolam Hill fit
  Hill coefficient: 1.743 ± 0.133
[1]
  responsiveness to midazolam potentiation: failed to convey any notable midazolam potentiation
[1]; 10 nM MDZ + EC10 GABA
  Midazolam potentiation (%): 11.98 ± 4.42%
[1]; 50 nM MDZ + EC10 GABA
  Midazolam potentiation (%): 19.07 ± 5.84%
[1]; 100 nM MDZ + EC10 GABA
  Midazolam potentiation (%): 25.21 ± 7.32%
[1]; 500 nM MDZ + EC10 GABA
  Midazolam potentiation (%): 25.85 ± 6.62%
[1]; 1000 nM MDZ + EC10 GABA
  Midazolam potentiation (%): 19.31 ± 7.32%
[2]
  EC50: 42 ± 2.86 nM
[2]; 10 nM MDZ + EC10 GABA, α2(T162P)
  Midazolam potentiation (%): 26.45 ± 4.06%
[2]; 50 nM MDZ + EC10 GABA, α2(T162P)
  Midazolam potentiation (%): 81.24 ± 9.43%
[2]; 100 nM MDZ + EC10 GABA, α2(T162P)
  Midazolam potentiation (%): 129.24 ± 14.94%
[2]; 500 nM MDZ + EC10 GABA, α2(T162P)
  Midazolam potentiation (%): 156.21 ± 15.70%
[2]; 1000 nM MDZ + EC10 GABA, α2(T162P)
  Midazolam potentiation (%): 150.36 ± 15.00%
[2]; α2(T162P), Hill fit, midazolam 10-1000 nM + EC10 GABA
  Max potentiation (%): 158.2 ± 15.8%
[2]; α2(T162P), midazolam Hill fit
  Hill coefficient: 1.393 ± 0.073
α4β2γ2 GABAA receptor; 10 nM MDZ + EC10 GABA
  Midazolam potentiation (%): 10.98 ± 3.61%
α4β2γ2 GABAA receptor; 50 nM MDZ + EC10 GABA
  Midazolam potentiation (%): 13.30 ± 4.65%
α4β2γ2 GABAA receptor; 100 nM MDZ + EC10 GABA
  Midazolam potentiation (%): 15.15 ± 4.85%
α4β2γ2 GABAA receptor; 500 nM MDZ + EC10 GABA
  Midazolam potentiation (%): 15.98 ± 5.42%
α4β2γ2 GABAA receptor; 1000 nM MDZ + EC10 GABA
  Midazolam potentiation (%): 17.89 ± 4.82%
α4β2γ2 GABAA receptor; wildtype α4β2γ2
  responsiveness to midazolam potentiation: no notable midazolam potentiation
[3]
  EC50: 59.8 ± 4.11 nM
[3]; 10 nM MDZ + EC10 GABA, α1(S206I)
  Midazolam potentiation (%): 13.37 ± 5.70%
[3]; 50 nM MDZ + EC10 GABA, α1(S206I)
  Midazolam potentiation (%): 44.00 ± 10.96%
[3]; 100 nM MDZ + EC10 GABA, α1(S206I)
  Midazolam potentiation (%): 80.14 ± 17.04%
[3]; 500 nM MDZ + EC10 GABA, α1(S206I)
  Midazolam potentiation (%): 107.07 ± 22.95%
[3]; 1000 nM MDZ + EC10 GABA, α1(S206I)
  Midazolam potentiation (%): 108.21 ± 24.13%
[3]; α1(S206I), Hill fit, midazolam 10-1000 nM + EC10 GABA
  Max potentiation (%): 135.8 ± 23.8% and 135.8 ± 23.78 %
[3]; α1(S206I), midazolam Hill fit
  Hill coefficient: 1.568 ± 0.199
[4]; 10 nM MDZ + EC10 GABA
  Midazolam potentiation (%): 9.85 ± 5.77%
[4]; 50 nM MDZ + EC10 GABA
  Midazolam potentiation (%): 21.72 ± 8.75%
[4]; 100 nM MDZ + EC10 GABA
  Midazolam potentiation (%): 25.17 ± 9.58%
[4]; 500 nM MDZ + EC10 GABA
  Midazolam potentiation (%): 30.08 ± 10.31%
[4]; 1000 nM MDZ + EC10 GABA
  Midazolam potentiation (%): 31.81 ± 11.79%
[4]; printed α2(H102R)
  responsiveness to midazolam potentiation: abolished the ability of receptors to respond to midazolam potentiation
[5]
  EC50: 61.1 ± 3.72 nM
[5]; 10 nM MDZ + EC10 GABA, α1(T163P)
  Midazolam potentiation (%): 14.19 ± 4.15%
[5]; 50 nM MDZ + EC10 GABA, α1(T163P)
  Midazolam potentiation (%): 49.96 ± 8.44%
[5]; 100 nM MDZ + EC10 GABA, α1(T163P)
  Midazolam potentiation (%): 96.68 ± 15.00%
[5]; 500 nM MDZ + EC10 GABA, α1(T163P)
  Midazolam potentiation (%): 124.27 ± 18.98%
[5]; 1000 nM MDZ + EC10 GABA, α1(T163P)
  Midazolam potentiation (%): 123.00 ± 18.99%
[5]; α1(T163P), Hill fit, midazolam 10-1000 nM + EC10 GABA
  Max potentiation (%): 127.7 ± 16.0 %
[5]; α1(T163P), midazolam Hill fit
  Hill coefficient: 2.113 ± 0.154
